Test results from patent EP4737451A1 (Dong Wha Pharm. Co., Ltd., priority 2023, dated 2025).

Assays:
IRAK1 enzyme = biological target: T1, IRAK1 enzyme (Homo sapiens, UniProt P51617); experiment: IRAK1 enzyme activity inhibition (ADP-Glo, Promega kit); format: biochemical; details: for inhibition at 0.1 µM: test compound 0.1 uM; for inhibition at 1 µM: test compound 1 uM
T1 construct: purchased Promega VA7477
Description: An experiment on IRAK1 enzyme activity inhibition of the compound of the present invention was conducted.
An IRAK1 enzyme kit (purchased from Promega, product number: VA7477) was used to dilute a mixed solution between 0.1 µg/µL of protein kinase B (AKT), which is an enzyme-reactive substrate, and 1.25 mM of ATP with a reaction buffer (40 mM Tris-HCl, pH 7.5; 20 mM MgCl2; 0.1 mg/mL BSA; 50 µM DTT) according to the instructions, so as to dispense 2 µL in a 384-well white plate, and then to add 1 µL of a test compound, which was gradient diluted starting from 1 mM, to a 384-well white plate. After that, an IRAK1 enzyme was diluted with a reaction buffer to a final concentration of 5 ng/µL, then 2 µL/well was dispensed into a 384-well white plate and reacted at 37°C for 60 minutes. After completion of a reaction, an ADP-GloTM enzyme test kit (purchased from Promega, product number: V9102) was used to add 5 µL of ADP-Glo reaction reagent and cause a reaction at 37°C for 40 minutes, and then 10 µL of enzyme chromogenic reagent was added again to measure a luminescence signal using equipment for measuring absorbance (THECAN, Microplate Reader). An activity inhibition rate was calculated from a measured value, and a 50% inhibition concentration (IC50 value) was analyzed through a non-linear regression analysis based on the % inhibition for each concentration of the test compound, and is shown in Table 3.

IRAK4 enzyme = biological target: T2, IRAK4 enzyme (Homo sapiens, UniProt Q9NWZ3); experiment: IRAK4 enzyme activity inhibition (ADP-Glo, Promega kit); format: biochemical; details: for inhibition at 0.1 µM: test compound 0.1 uM; for inhibition at 1 µM: test compound 1 uM
T2 construct: purchased Promega V2621
T2 sequence (Q9NWZ3 1-460): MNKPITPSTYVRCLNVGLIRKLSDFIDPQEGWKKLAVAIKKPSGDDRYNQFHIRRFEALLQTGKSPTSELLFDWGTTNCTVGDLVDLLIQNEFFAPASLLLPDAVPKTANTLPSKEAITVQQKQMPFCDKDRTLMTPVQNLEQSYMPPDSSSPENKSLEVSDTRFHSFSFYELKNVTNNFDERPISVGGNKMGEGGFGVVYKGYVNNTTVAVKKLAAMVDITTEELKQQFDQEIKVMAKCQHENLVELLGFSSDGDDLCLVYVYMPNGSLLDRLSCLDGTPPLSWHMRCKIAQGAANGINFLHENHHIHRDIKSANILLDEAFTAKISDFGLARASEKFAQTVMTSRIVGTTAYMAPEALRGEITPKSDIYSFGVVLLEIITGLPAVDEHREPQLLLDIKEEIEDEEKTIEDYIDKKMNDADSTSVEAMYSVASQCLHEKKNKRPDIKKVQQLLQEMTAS
Description: An experiment on IRAK4 enzyme activity inhibition of the compound of the present invention was conducted.
An IRAK4 enzyme kit (purchased from Promega, product number: V2621) was used to dilute a mixed solution between 0.1 µg/µL of myelin basic protein (MBP), which is an enzyme-reactive substrate, and 1.25 mM of ATP with a reaction buffer (40 mM Tris-HCl, pH 7.5; 20 mM MgCl2; 0.1 mg/mL BSA; 50 µM DTT) according to the instructions, so as to dispense 2 µL in a 384-well white plate, and then to add 1 µL of a test compound, which was gradient diluted starting from 1 mM, to a 384-well plate. After that, an IRAK4 enzyme was diluted with a reaction buffer to a final concentration of 5 ng/µL, then 2 µL/well was dispensed into a 384-well white plate and reacted at 37°C for 60 minutes. After completion of a reaction, an ADP-GloTM enzyme test kit (purchased from Promega, product number: V9102) was used to add 5 µL of ADP-Glo reaction reagent and cause a reaction at 37°C for 40 minutes, and then 10 µL of enzyme chromogenic reagent was added again to measure a luminescence signal using equipment for measuring absorbance (THECAN, Microplate Reader). An activity inhibition rate was calculated from a measured value, and a 50% inhibition concentration (IC50 value) was analyzed through a non-linear regression analysis based on the % inhibition for each concentration of the test compound, and is shown in Table 2.

T1 sequence (P51617 whole entry): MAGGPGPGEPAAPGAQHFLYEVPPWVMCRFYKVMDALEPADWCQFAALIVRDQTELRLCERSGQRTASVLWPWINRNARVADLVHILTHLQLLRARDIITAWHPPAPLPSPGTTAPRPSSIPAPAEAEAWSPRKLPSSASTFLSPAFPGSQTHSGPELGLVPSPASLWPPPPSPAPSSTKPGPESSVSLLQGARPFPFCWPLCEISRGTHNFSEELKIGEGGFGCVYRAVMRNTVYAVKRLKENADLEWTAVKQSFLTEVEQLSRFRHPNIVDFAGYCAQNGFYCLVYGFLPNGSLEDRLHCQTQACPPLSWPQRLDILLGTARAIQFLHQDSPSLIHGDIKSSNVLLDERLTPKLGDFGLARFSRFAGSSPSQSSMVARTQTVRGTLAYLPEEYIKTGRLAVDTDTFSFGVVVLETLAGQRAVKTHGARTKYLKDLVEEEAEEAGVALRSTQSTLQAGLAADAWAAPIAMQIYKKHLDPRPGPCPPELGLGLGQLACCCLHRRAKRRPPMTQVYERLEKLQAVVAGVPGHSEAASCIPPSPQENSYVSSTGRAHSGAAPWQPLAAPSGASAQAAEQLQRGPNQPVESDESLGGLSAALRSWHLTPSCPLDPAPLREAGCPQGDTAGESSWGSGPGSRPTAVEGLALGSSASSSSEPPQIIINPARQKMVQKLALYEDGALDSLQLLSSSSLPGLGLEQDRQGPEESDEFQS

Row | SMILES | inhibition at 0.1 µM (IRAK1 enzyme) | inhibition at 0.1 µM (IRAK4 enzyme) | inhibition at 1 µM (IRAK1 enzyme) | inhibition at 1 µM (IRAK4 enzyme) | IC50 (IRAK4 enzyme)
1 | CN(C)CCn1cc2cc(NC(=O)c3cccc(C(N)=O)c3)c(-c3ccsc3)cc2n1 [Example 1, N-(2-(2-(dimethylamino)ethyl)-6-(thiophen-3-yl)-2H-indazol-5-yl)isophthalamide] | 42.4% | 19.1% | – | – | –
2 | CC(C)(O)CCn1cc2cc(NC(=O)c3cccc([N+](=O)[O-])c3)cc(-c3ccoc3)c2n1 [Example 16, N-(7-(furan-3-yl)-2-(3-hydroxy-3-methylbutyl)-2H-indazol-5-yl)-3-nitrobenzamide] | – | 48.8% | 17.2% | 71% | –
3 | CC(C)(O)CCn1cc2cc(NC(=O)c3cccc(-c4cn[nH]c4)n3)c(N3CCOCC3)cc2n1 [Example 20, N-(2-(3-hydroxy-3-methylbutyl)-6-morpholino-2H-indazol-5-yl)-6-(1H-pyrazol-4-yl)picolinamide] | 16.5% | 89.6% | 57% | – | 15.5 nM
4 | CC(C)(O)CCn1cc2cc(NC(=O)c3cccc([N+](=O)[O-])c3F)c(N3CCOCC3)cc2n1 [Example 22, 2-fluoro-N-(2-(3-hydroxy-3-methylbutyl)-6-morpholino-2H-indazol-5-yl)-3-nitrobenzamide] | 30.3% | 88.3% | 47.2% | – | 40.3 nM
5 | CC(C)(O)CCn1cc2cc(NC(=O)c3cc(F)cc([N+](=O)[O-])c3)c(N3CCOCC3)cc2n1 [Example 24, 3-fluoro-N-(2-(3-hydroxy-3-methylbutyl)-6-morpholino-2H-indazol-5-yl)-5-nitrobenzamide] | 26.9% | 83.9% | 45.5% | – | 13.1 nM
6 | CC(C)(O)CCn1cc2cc(NC(=O)c3cccc([N+](=O)[O-])c3)c(N3CCC(C(C)(C)O)CC3)cc2n1 [Example 30, N-(2-(3-hydroxy-3-methylbutyl)-6-(4-(2-hydroxypropan-2-yl)piperidin-1-yl)-2H-indazol-5-yl)-3-nitrobenzamide] | 8.6% | 82.8% | – | – | 0.88 nM
7 | CC(C)(O)CCn1cc2cc(NC(=O)c3cccc(C(N)=O)c3)c(N3CCSCC3)cc2n1 [Example 33, N-(2-(3-hydroxy-3-methylbutyl)-6-thiomorpholino-2H-indazol-5-yl)isophthalamide] | 24% | 71.3% | 39.3% | 95.6% | 22.1 nM
8 | O=C(Nc1cc2cn(CCN3CCOCC3)nc2cc1-c1ccc(F)cc1)c1cccc([N+](=O)[O-])c1 [Example 34, N-(6-(4-fluorophenyl)-2-(2-morpholinoethyl)-2H-indazol-5-yl)-3-nitrobenzamide] | 4.6% | 69.4% | 17.4% | 88.2% | –
9 | CC(C)(O)CCn1cc2cc(NC(=O)c3cccc([N+](=O)[O-])c3)c(-c3cccc(C(=O)N4CCOCC4)c3)cc2n1 [Example 35, N-(2-(3-hydroxy-3-methylbutyl)-6-(3-(morpholine-4-carbonyl)phenyl)-2H-indazol-5-yl)-3-nitrobenzamide] | 33.1% | 64.6% | 60.8% | – | –
10 | CC(C)(O)CCn1cc2cc(NC(=O)c3cccc(-c4ccsc4)n3)c(N3CCOCC3)cc2n1 [Example 36, N-(2-(3-hydroxy-3-methylbutyl)-6-morpholino-2H-indazol-5-yl)-6-(thiophen-3-yl)picolinamide] | 5.7% | 55.2% | 12.9% | – | –
11 | CC(C)(O)CCn1cc2cc(NC(=O)c3cccc([N+](=O)[O-])c3)c(-c3ccc(N4CCOCC4)cc3)cc2n1 [Example 37, N-(2-(3-hydroxy-3-methylbutyl)-6-(4-morpholinophenyl)-2H-indazol-5-yl)-3-nitrobenzamide] | 26.3% | 52.2% | 31% | – | –
12 | CN(C)c1cc2nn(CCC(C)(C)O)cc2cc1NC(=O)c1cccc([N+](=O)[O-])c1 [Example 38, N-(6-(dimethylamino)-2-(3-hydroxy-3-methylbutyl)-2H-indazol-5-yl)-3-nitrobenzamide] | 4.6% | 87.9% | – | – | 5.1 nM

The next lines start with the values.

Row | inhibition at 0.1 µM (IRAK1 enzyme) | inhibition at 0.1 µM (IRAK4 enzyme) | inhibition at 1 µM (IRAK1 enzyme) | inhibition at 1 µM (IRAK4 enzyme) | IC50 (IRAK4 enzyme) | SMILES
13 | 1.3% | 18.6% | 0% | 19.2% | – | CS(=O)(=O)CCn1cc2cc(NC(=O)c3cccc([N+](=O)[O-])c3)c(N3CCOCC3)cc2n1 [Example 13, N-(2-(2-(methylsulfonyl)ethyl)-6-morpholino-2H-indazol-5-yl)-3-nitrobenzamide]
14 | – | 21.1% | 0% | 35.6% | – | CS(=O)(=O)CCn1cc2cc(NC(=O)c3cccc(S(=O)(=O)N4CCOCC4)c3)c(N3CCOCC3)cc2n1 [Example 14, N-(2-(2-(methylsulfonyl)ethyl)-6-morpholino-2H-indazol-5-yl)-3-(morpholinosulfonyl)benzamide]
15 | 33.1% | 76.7% | 63.4% | – | 330 nM | NC(=O)COCCn1cc2cc(NC(=O)c3cccc(S(N)(=O)=O)c3)c(N3CCOCC3)cc2n1 [Example 17, N-(2-(2-(2-amino-2-oxoethoxy)ethyl)-6-morpholino-2H-indazol-5-yl)-3-sulfamoylbenzamide]
16 | – | 54.8% | 23.2% | 65.6% | – | NC(=O)COCCn1cc2cc(NC(=O)c3cccc(C(N)=O)c3)c(N3CCOCC3)cc2n1 [Example 18, N-(2-(2-(2-amino-2-oxoethoxy)ethyl)-6-morpholino-2H-indazol-5-yl)isophthalamide]
17 | – | 84.7% | 38.7% | 90.1% | 31.7 nM | O=C(Nc1cc2cn(CCN3CCOCC3)nc2cc1N1CCOCC1)c1cccc([N+](=O)[O-])c1 [Example 19, N-(6-morpholino-2-(2-morpholinoethyl)-2H-indazol-5-yl)-3-nitrobenzamide]
18 | 24.9% | 81.3% | 54.6% | – | 78.5 nM | CC(C)(O)CCn1cc2cc(NC(=O)c3cccc(C(N)=O)c3)c(N3CCOCC3)cc2n1 [Example 25, N-(2-(3-hydroxy-3-methylbutyl)-6-morpholino-2H-indazol-5-yl)isophthalamide]
19 | 31.7% | 71.3% | 40.2% | – | 192 nM | CC(C)(O)CCn1cc2cc(NC(=O)c3ccc(F)c([N+](=O)[O-])c3)c(N3CCOCC3)cc2n1 [Example 26, 4-fluoro-N-(2-(3-hydroxy-3-methylbutyl)-6-morpholino-2H-indazol-5-yl)-3-nitrobenzamide]
20 | 17.6% | 57.3% | 25.3% | – | – | CC(C)(O)CCn1cc2cc(NC(=O)c3cccc(-c4nccs4)c3)c(N3CCOCC3)cc2n1 [Example 27, N-(2-(3-hydroxy-3-methylbutyl)-6-morpholino-2H-indazol-5-yl)-3-(thiazol-2-yl)benzamide]
21 | 30.6% | 88% | 66.7% | – | 13.4 nM | CC(C)(O)CCn1cc2cc(NC(=O)c3cccc(S(N)(=O)=O)c3)c(N3CCC(O)CC3)cc2n1 [Example 31, N-(2-(3-hydroxy-3-methylbutyl)-6-(4-hydroxypiperidin-1-yl)-2H-indazol-5-yl)-3-sulfamoylbenzamide]
